Entries after “also recorded” stand apart in the source; their conditions may differ.
Key:
[1] = system: CRF01_AE Env (92TH023 and CM244 isolates) WT or mutated; assay: Cell-surface staining of HEK293T cells transfected with CRF01_AE Env expressors, Env ligand binding with or without compound; assay type: cell-based, HIV-1
Experimental: Cell-surface staining of HEK293T cells transfected with different CRF01_AE Env expressors (92TH023 and CM244 isolates) WT or their mutated counterparts together with a GFP expressor (in order to identify positively transfected cells) using a panel of Env ligands. (FIG. 4A, B) sCD4 binding in presence of BNM-III-170 (50 μM) or not (DMSO) was detected with the anti-CD4 OKT4 mAb. Binding of broadly-neutralizing antibodies (bNAbs) that preferentially recognize state 1 Env (Lu M et al. 2019. Nature 568, pages 415-419; Munro J B et al., 2014. Science 346:759-763) (FIG. 4B, E) and non-neutralizing antibodies (nnAbs) that preferentially recognize states 2/2A/3 (Alsahafi N et al., 2019. Cell Host Microbe 25:578-587, Prevost J et al., 2018. Virology 515:38-45) (FIG. 4C, F) was also performed in presence of BNM-III-170 (50 μM) or not (DMSO). Shown are the mean fluorescence intensities (MFI) obtained in presence of BNM-III-170 normalized to the MFI in absence of BNM-111-170 (DMSO) from the transfected (GFP+) population for staining obtained in at least 3 independent experiments. All MFI were normalized to MFI signals obtained with the anti-gp120 outer domain 2G12. Decrease in sCD4 signal indicates competition with BNM-III-170 (i.e., this represents an indirect measure of BNM-III-170 interaction with each Env mutant) (FIGS. 4A and D). […] Increase in nnAbs signal is consistent with the capacity of BNM-III-170 to push Env to downstream “open” states 2/3 conformations (C and F). […] Error bars indicate mean±SEM. Statistical significance was tested using an unpaired t-test (* p<0.05, ** p<0.01, *** p<0.001, **** p<0.0001, ns: non significant).
(§1) FIGS. 6A-F show the effect of Phe43 cavity and layer mutations (LM) on neutralization by small molecules known to stabilize Env State 1. Recombinant HIV-1 strains expressing luciferase and bearing wild-type or mutant CRF01_AE Envs (92TH023 and CM244 isolates) were normalized by reverse transcriptase activity. Normalized amounts of viruses were incubated with serial dilutions of BMS-626529 (Nowicka-Sans B et al. 2012. Antimicrob Agents Chemother 56:3498-3507; Pancera M et al., 2017. Nat Chem Biol 13:1115-1122) (FIG. 6A, B) or 484 (16) (FIG. 6C) at 37° C. for 1 h prior to infection of Cf2Th-CD4/CCR5 cells. Infectivity at each dilution of the compound tested is shown as the percentage of infection without the compound for each particular mutant. Quadruplicate samples were analyzed in each experiment. Data shown are the means of results obtained in at least 3 independent experiments. The error bars represent the standard deviations. (FIG. 6E, F) Cell-surface staining of 293T cells transfected with different CRF01_AE Env expressors (92TH023 and CM244 isolates) WT or their mutated counterparts together with a GFP expressor (in order to identify positively transfected cells) using sCD4. Binding of sCD4 in presence of BMS-626529 (50 μM) or not (DMSO) was detected with the anti-CD4 OKT4 mAb. Shown are the mean fluorescence intensities (MFI) obtained in presence of BNM-III-170 normalized to the MFI in absence of BNM-III-170 (DMSO) from the transfected (GFP+) population for staining obtained in at least 3 independent experiments. All MFI were normalized to 2G12 MFI for each Env mutants. Decrease in sCD4 signal indicates competition with BMS-626529 (i.e., this represents an indirect measure of BMS-626529 interaction with each Env mutant). […] Error bars indicate mean±SEM. Statistical significance was tested using an unpaired t-test (** p<0.01, ns: non significant).
To gain a better understanding of the impact that the LM and 375 changes have on Env conformation, an assay to measure sCD4 and BNM-III-170 capacity to interact with Env was developed. Briefly, CD4-negative cells were transfected with Env variants. Two days post-transfection, BNM-III-170 or the vehicle (DMSO) was added to Env-expressing cells. […]

[2] = system: Recombinant HIV-1 strains bearing wild-type or mutant CRF01_AE Envs (92TH023 and CM244 isolates); assay: Neutralization of recombinant luciferase HIV-1 bearing wild-type or mutant CRF01_AE Envs, infection of Cf2Th-CD4/CCR5 cells; assay type: cell-based
Experimental: J Virol 74:10690-10698). Infectivity at each dilution of sCD4 or CD4mc tested is shown as the percentage of infection without sCD4 or CD4mc for each particular mutant. Quadruplicate samples were analyzed in each experiment. Data shown are the means of results obtained in at least 3 independent experiments. The error bars represent the standard deviations. […]
as §1, with “significant). […]” for “significant).”
CD4mc were used as probes to evaluate the potential impact of the LM residues on shaping the Phe43 cavity. […] In contrast, no or very little effect was measured in recombinant viruses with mutations in the Phe43 cavity only or in the inner domain layer only.

[3] = system: CRF01_AE Env from a transmitted founder strain (40100 isolate) with LM+HS mutations; assay: Cell-surface staining of primary CD4+ T cells infected with SHIV expressing CRF01_AE Env, anti-Env mAb binding with compound; assay type: cell-based
Experimental: Cell-surface staining of primary CD4^+ T cells infected with SHIV expressing a CRF01_AE Env from a transmitted founder strain (40100 isolate) (Chenine A L et al., 2018. J Acquir Immune Defic Syndr 78:348-355; Kijak G H et al., 2017. PLoS Pathog 13:e1006510) mutated to harbor the LM+HS mutations using a panel of Env ligands. Binding of anti-Env mAbs preferring State 1 (PGT128, PGT145, PG9, 10-1074) (FIG. 7A-D) or preferring State 2/3 (19b, 17b) (FIG. 7E-F) was performed in presence of DMSO or increasing amount of BNM-III-170 (stabilises States 2/3 (Munro J B et al., 2014. Science 346:759-763; Alsahafi N et al., 2019. Cell Host Microbe 25:578-587: e575; Herschhorn A, et al. 2017. Nat Commun 8:1049) or BMS-626529 (stabilizes State 1, (Lu M et al. 2019. Nature 568, pages 415-419; Munro J B et al., 2014. Science 346:759-763)). Shown are the mean fluorescence intensities (MFI) obtained in presence of the compounds normalized to the MFI in absence of any compound (DMSO) from the infected (p27+) population. All MFI were normalized to 2G12 MFI for each mAb. State 1 and State 2/3 Abs were grouped in FIG. 7G and FIG. 7H, respectively.

[4] = LM+HS or LM+HT mutants of CRF01_AE Envs versus wild-type
[5] = LM+HS or LM+HT mutants, BNM-III-170 50 μM vs DMSO

Compound	Env conformation adopted in presence of ligand ([1]; CRF01_AE gp160 with the same six mutations combined with H375S)	sCD4 signal in presence of compound (competition, indirect measure of interaction with Env) ([1]; LM-HS mutant, BMS-626529 50 μM vs DMSO, detected with anti-CD4 OKT4 mAb)	sensitivity to neutralization [2, 4]	Env recognition by bNAbs preferentially binding state 1 in presence of compound ([3]; increasing amount of BMS-626529 vs DMSO)	Env conformation adopted in presence of ligand ([1]; CRF01_AE gp160 with H61Y, Q105H, V108I, N474D, I475M, K476R combined with H375T)	compound-induced Env conformational changes (open conformation) [1, 5]	recognition by state 1 preferring bNAbs in presence of compound [1, 5]	sCD4 and nnAbs binding (open state 2/3 preferring) in presence of compound [1, 5]	susceptibility to neutralization ([2]; H375S combined with LM mutations (LM+HS), both CRF01_AE strains)	neutralization of pseudotypes ([2]; H375S mutant of both CRF01_AE Envs)	sensitivity to neutralization ([2]; different combinations of single or multiple layer mutations together with H375S)	neutralization of viral particles ([2]; wild-type CRF01_AE Envs (92TH023 and CM244))	Env recognition by nnAbs preferentially binding states 2/3 in presence of compound ([3]; increasing amount of BNM-III-170 vs DMSO)
COc1cnc(-n2cnc(C)n2)c2[nH]cc(C(=O)C(=O)N3CCN(C(=O)c4ccccc4)CC3)c12 [BMS-626529, temsavir]	tend to adopt a state 1 configuration	statistically significant decrease	sensitized	enhanced Env recognition	–	–	–	–	–	–	–	–	–
CNCc1ccc2c(c1)C[C@H](CN=C(N)N)[C@H]2NC(=O)C(=O)Nc1ccc(Cl)c(F)c1.O=C(O)C(F)(F)F.O=C(O)C(F)(F)F [BNM-III-170]	–	–	more sensitive to neutralization	–	tend to adopt an open state 2/3 configuration	superior; also recorded: more susceptible	decrease in recognition	increase in sCD4 and nnAbs binding	dramatically enhanced the susceptibility	did not restore neutralization sensibility	did not restore sensitivity	resistant to neutralization	enhanced Env recognition
